This experiment concerns adjuvant-induced polyarthritis. As to the kind of experiment: adjuvant-induced polyarthritis syndrome in rats (paw volume). The settings on record: Rattus norvegicus, 504 h, dose effecting 50 % inhibition of paw volume, oral, day before adjuvant and continued for 21 days, male Charles River-Wistar Lewis rats. It is filed as in vivo. The protocol: The (6,11-dihydro-11-oxodibenz[b,e]oxepinyl)pentanols and derivatives thereof of the present invention are useful as antiarthritic agents due to their ability to specifically suppress arthritis-type inflammation in mammals. […] M. Perrone and F. D. Wood, Arthritis and Rheumatism, 2, 440 (1959).
Groups of 10 male Charles River-Wistar Lewis rats weighing 150 to 175 g were individually housed and maintained on a regular rat chow diet. Water was given ad libitum. The adjuvant was prepared by suspending 75 mg of Mycobacterium butyricum (Difeo Laboratories, Detroit, Michigan) in 10 ml of white paraffin oil with continuous stirring for 2 hrs at room temperature prior to administration. Test compounds are prepared by suspending the drug in water, adding one drop of Tween 80 per 10 ml of suspension, and homogenizing. The adjuvant suspension (0.1 ml) was injected into the footpad of the left hind paw of the rat. Test compound suspensions were administered orally (10 ml/kg) the day before adjuvant suspension injection and the administration was continued for 21 days. One group of ten rats was used for the test drug, standard, adjuvant-injected control and non-injected control. Control animals received vehicle (10 ml/kg). Three doses of test drug and one dose of standard preparation were used. Injected and non-injected paw volumes were determined on the day the adjuvant suspension was given, and in subsequent days thereafter (usually days 5, 10, 18 and 21) by the method of C. A. Wilson, et al., Proc. Soc. Exp. Biol. Med., 111 544 (1962).
The percent inhibition of paw volume (injected and non-injected hind paw) was calculated by the following formula: [formula] ED50-values, i.e., the dose at which the drug effects a 50 % inhibition of paw volume, were estimated by the method of J. T. Litchfield and F. Wilcoxon, J. Pharm. Exp. Thes., 96, 99 (1948), and statistically evaluated by means of the sudent "t" test.

Setting [1] is: injected hind paw, read-out: ED50 (injected).
Setting [2] is: non-injected hind paw, read-out: ED50 (non-injected).

Structures are written as SMILES. Read-outs that look alike come from different tables or passages of the source.

By ED50 is commonly meant the dose that gives a 50% effect, or the effect in half of the subjects. For `CC(CCCO)c1ccc2c(c1)C(=O)c1ccccc1CO2` (stereo not shown) [4-(6,11-Dihydro-11-oxodibenz[b,e]oxepin-2-yl)pentanol], the ED50 is 5.6 mg/kg under setting [1] and 3.9 mg/kg under setting [2].

Regarding `CCCCC1C(=O)N(c2ccccc2)N(c2ccccc2)C1=O` [phenylbutazone], the ED50 under setting [1] is 12 mg/kg and the ED50 under setting [2] was found to be 6.8 mg/kg.

The record behind these values is patent publication EP0160258A2, “(6,11-Dihydro-11-oxodibenz(bm,e)oxepinyl)pentanols, a process and intermediates for their preparation and their use as medicaments” (HOECHST-ROUSSEL PHARMACEUTICALS INCORPORATED, priority 1984, dated 1985).
